Experimental data from patent US20040006236A1, “Diaminopropionic acid derivatives” (priority 1999, published 2004).

Experiments:
[1] = molecular target: T1, LFA-1 binding to immobilized ICAM-1 (Homo sapiens, UniProt P05107+P20701); assay: LFA-1/ICAM-1 protein-protein assay (solid-phase ELISA); conditions: read-out: LFA-1/ICAM-1 Protein-Protein Assay IC50
T1 construct: made in house; host or cells: transfected 293 cells (LFA-1)
Outline: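 Human 5dICAM-Ig (ICAM-1 extracellular domain–IgG Fc) coated on plates; membrane-bound LFA-1 from transfected 293 cells (280 ng/mL) added with compound in Mn2+-containing HEPES buffer pH 7.2, 2 h at 37° C. Bound LFA-1 detected via anti-β2 antibody and HRP/TMB at 450 nm; IC50s determined.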

[2] = system: cell-surface Mac-1 adhesion to immobilized fibrinogen (HL-60 cells); assay: Mac-1/Fibrinogen cell-based screening assay; set-up: species or system human; conditions: Homo sapiens, HL-60, HL-60 cells; read-out: Mac-1/Fgn Cell based Assay IC50
Outline: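 Wells coated with fibrinogen and blocked with PVP. Labeled HL-60 cells (2×10^6 cells/mL in RPMI/0.05% BSA/0.2 mM MnCl2) preincubated with DMSO-diluted compounds for 10 min at 37° C, then left to adhere 30 min at 37° C/5% CO2. Unbound cells washed off with TBS.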

T1 sequence (P20701 26-1170): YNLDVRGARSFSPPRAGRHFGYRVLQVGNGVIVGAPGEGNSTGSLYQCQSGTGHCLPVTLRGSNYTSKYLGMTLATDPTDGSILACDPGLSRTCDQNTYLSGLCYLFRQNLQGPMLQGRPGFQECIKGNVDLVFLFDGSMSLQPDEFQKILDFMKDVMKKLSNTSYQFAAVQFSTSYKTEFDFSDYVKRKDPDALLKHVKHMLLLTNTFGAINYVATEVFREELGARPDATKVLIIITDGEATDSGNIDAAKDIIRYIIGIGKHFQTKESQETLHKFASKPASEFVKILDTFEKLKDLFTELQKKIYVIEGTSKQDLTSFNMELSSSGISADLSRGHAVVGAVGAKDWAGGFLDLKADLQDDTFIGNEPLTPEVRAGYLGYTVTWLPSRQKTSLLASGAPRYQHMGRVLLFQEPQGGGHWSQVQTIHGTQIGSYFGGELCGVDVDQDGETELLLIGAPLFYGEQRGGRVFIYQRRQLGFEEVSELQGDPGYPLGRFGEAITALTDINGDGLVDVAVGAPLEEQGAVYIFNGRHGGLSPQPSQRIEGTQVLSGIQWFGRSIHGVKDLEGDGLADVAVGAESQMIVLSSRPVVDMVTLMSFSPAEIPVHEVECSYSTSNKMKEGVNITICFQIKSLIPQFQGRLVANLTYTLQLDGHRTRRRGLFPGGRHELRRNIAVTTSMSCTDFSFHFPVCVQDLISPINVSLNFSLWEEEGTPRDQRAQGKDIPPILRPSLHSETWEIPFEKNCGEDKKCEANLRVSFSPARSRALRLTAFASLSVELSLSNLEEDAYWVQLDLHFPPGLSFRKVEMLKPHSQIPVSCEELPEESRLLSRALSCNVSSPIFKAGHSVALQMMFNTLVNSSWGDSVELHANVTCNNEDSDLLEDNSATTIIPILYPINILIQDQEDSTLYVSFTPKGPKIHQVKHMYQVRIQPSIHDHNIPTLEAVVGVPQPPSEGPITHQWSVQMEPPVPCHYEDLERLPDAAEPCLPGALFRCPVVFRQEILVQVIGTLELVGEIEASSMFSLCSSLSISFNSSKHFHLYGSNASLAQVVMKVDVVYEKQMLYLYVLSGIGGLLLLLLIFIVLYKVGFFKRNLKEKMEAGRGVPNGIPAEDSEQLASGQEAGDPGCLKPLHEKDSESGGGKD
T1 sequence (P05107 23-769): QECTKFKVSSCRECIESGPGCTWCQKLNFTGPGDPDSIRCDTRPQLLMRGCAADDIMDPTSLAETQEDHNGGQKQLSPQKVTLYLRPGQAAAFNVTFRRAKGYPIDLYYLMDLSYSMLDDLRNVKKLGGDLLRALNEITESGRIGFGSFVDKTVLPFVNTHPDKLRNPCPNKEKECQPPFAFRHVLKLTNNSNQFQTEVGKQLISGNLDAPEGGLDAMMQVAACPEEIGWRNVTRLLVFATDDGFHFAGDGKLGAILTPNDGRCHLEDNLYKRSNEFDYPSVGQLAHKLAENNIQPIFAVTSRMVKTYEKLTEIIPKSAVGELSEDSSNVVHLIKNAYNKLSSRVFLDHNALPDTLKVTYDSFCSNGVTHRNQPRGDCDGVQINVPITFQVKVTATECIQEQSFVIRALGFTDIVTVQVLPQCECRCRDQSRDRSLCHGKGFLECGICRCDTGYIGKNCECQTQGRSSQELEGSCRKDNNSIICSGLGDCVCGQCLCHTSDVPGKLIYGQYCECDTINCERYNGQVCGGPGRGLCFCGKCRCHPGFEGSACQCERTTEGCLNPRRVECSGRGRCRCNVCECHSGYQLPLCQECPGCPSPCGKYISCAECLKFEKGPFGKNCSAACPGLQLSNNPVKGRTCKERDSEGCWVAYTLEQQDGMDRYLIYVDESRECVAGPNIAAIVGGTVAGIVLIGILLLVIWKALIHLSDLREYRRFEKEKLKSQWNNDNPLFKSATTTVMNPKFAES

Structure (SMILES)	IC50 [1] [nM]	IC50 [2] [nM]
O=C(NCc1cccc(O)c1)c1ccc(C(=O)N[C@@H](CNC(=O)c2ccccc2[N+](=O)[O-])C(=O)O)c(Cl)c1 [Example 140]	1.8	98
O=C(NCc1cccc(O)c1)c1ccc(C(=O)N[C@@H](CNC(=O)c2cccc([N+](=O)[O-])c2)C(=O)O)c(Cl)c1 [Example 141]	1.9	47
O=C(NCc1cccc(O)c1)c1ccc(C(=O)N[C@@H](CNC(=O)c2ccc([N+](=O)[O-])cc2)C(=O)O)c(Cl)c1 [Example 142]	2	275
O=C(NCc1cccc(O)c1)c1ccc(C(=O)N[C@@H](CNC(=O)c2cc(F)c(F)cc2F)C(=O)O)c(Cl)c1 [Example 145]	1.7	131
O=C(NCc1cccc(O)c1)c1ccc(C(=O)N[C@@H](CNC(=O)c2cccc(C(F)(F)F)c2)C(=O)O)c(Cl)c1 [Example 146]	2.6	153
O=C(NCc1cccc(O)c1)c1ccc(C(=O)N[C@@H](CNC(=O)c2ccco2)C(=O)O)c(Cl)c1 [Example 148]	1.4	76
O=C(NCc1cccc(O)c1)c1ccc(C(=O)N[C@@H](CNC(=O)c2ccc(Br)o2)C(=O)O)c(Cl)c1 [Example 150]	2.5	65
O=C(NCc1cccc(O)c1)c1ccc(C(=O)N[C@@H](CNC(=O)c2ccc[nH]2)C(=O)O)c(Cl)c1 [Example 151]	2.8	46
Cc1noc(C)c1C(=O)NC[C@H](NC(=O)c1ccc(C(=O)NCc2cccc(O)c2)cc1Cl)C(=O)O [Example 153]	7.7	804
O=C(NCc1cccc(O)c1)c1ccc(C(=O)N[C@@H](CNC(=O)c2sccc2Br)C(=O)O)c(Cl)c1 [Example 154]	0.9	58
O=C(NCc1cccc(O)c1)c1ccc(C(=O)N[C@@H](CNC(=O)c2ccc(Br)s2)C(=O)O)c(Cl)c1 [Example 155]	0.7	51
O=C(NCc1cccc(O)c1)c1ccc(C(=O)N[C@@H](CNC(=O)c2sccc2Cl)C(=O)O)c(Cl)c1 [Example 156]	1	64
O=C(NCc1cccc(O)c1)c1ccc(C(=O)N[C@@H](CNC(=O)c2ccc(Cl)s2)C(=O)O)c(Cl)c1 [Example 157]	1.2	34
O=C(NCc1cccc(O)c1)c1ccc(C(=O)N[C@@H](CNC(=O)c2cc(Br)c(Br)s2)C(=O)O)c(Cl)c1 [Example 158]	7.5	70
Cc1ccsc1C(=O)NC[C@H](NC(=O)c1ccc(C(=O)NCc2cccc(O)c2)cc1Cl)C(=O)O [Example 159]	0.9	36
Cc1ccc(C(=O)NC[C@H](NC(=O)c2ccc(C(=O)NCc3cccc(O)c3)cc2Cl)C(=O)O)s1 [Example 160]	0.9	11
O=C(NCc1cccc(O)c1)c1ccc(C(=O)N[C@@H](CNC(=O)c2ccsc2)C(=O)O)c(Cl)c1 [Example 161]	1	17
C[C@@H](NC(=O)c1cc(Cl)c(C(=O)N[C@@H](CNC(=O)c2cccs2)C(=O)O)c(Cl)c1)c1cccc2ccccc12 [Example 346, N-[2,6-dichloro-4-[[[(1R)-1-(1-naphthalenyl)ethyl]amino]carbonyl]benzoyl]-3-[(thiophene-2-carbonyl)amino]-L-alanine]	2.1	4
C[C@@H](NC(=O)c1cc(Cl)c(C(=O)N[C@@H](CNC(=O)c2ccccc2)C(=O)O)c(Cl)c1)c1cccc2ccccc12 [Example 347]	3.4	13.1
O=C(NCc1cccc(O)c1)c1cc(Cl)c(C(=O)N[C@@H](CNC(=O)c2cccc(F)c2)C(=O)O)c(Cl)c1 [Example 349]	1.1	6.2
O=C(NCc1cccc(O)c1)c1cc(Cl)c(C(=O)N[C@@H](CNC(=O)c2cccc(O)c2)C(=O)O)c(Cl)c1 [Example 350]	1	0.5
COc1ccc(C(=O)NC[C@H](NC(=O)c2c(Cl)cc(C(=O)NCc3cccc(O)c3)cc2Cl)C(=O)O)cc1O [Example 351]	0.8	3
O=C(NCc1cccc(O)c1)c1cc(Cl)c(C(=O)N[C@@H](CNC(=O)c2sccc2Br)C(=O)O)c(Cl)c1 [Example 353]	1.6	13
O=C(NCc1cccc(O)c1)c1cc(Cl)c(C(=O)N[C@@H](CNC(=O)c2ccc(Br)s2)C(=O)O)c(Cl)c1 [Example 354]	1	12
Cc1ccc(C(=O)NC[C@H](NC(=O)c2c(Cl)cc(C(=O)NCc3cccc(O)c3)cc2Cl)C(=O)O)s1 [Example 358]	0.2	6.5
